Earlier results as cited in US12473269B2, “Urolithin derivatives and methods of use thereof” (Vandria SA, priority 2021, dated 2025).

System: C2C12 myoblasts
Conditions: treatment of C2C12 myoblasts; mitochondrial fragmentation and decrease in mitochondrial content; Ryu et al., Nat Med 2016

Question: For `O=c1oc2cc(O)ccc2c2ccc(O)cc12` [UA, Urolithin A], which induction of mitophagy is on record?
Answer: induction of mitophagy
